Reference: ChEMBL document CHEMBL5244269, “Improving metabolic stability and removing aldehyde oxidase liability in a 5-azaquinazoline series of IRAK4 inhibitors” (Bioorg Med Chem, 2020)

Tests used:
Assay type in all cases: functional
SUD4 [1] = test: Growth inhibition of human SU-DHL-4 cells at 1.7 uM incubated for 3 days in presence of 0.017 uM acalabrutinib relative to control; conditions: SU-DHL-4, 72 h, time 3 day, read-out: GI
SUD4 [2] = test: Growth inhibition of human SU-DHL-4 cells at 0.33 uM incubated for 3 days in presence of 0.33 uM acalabrutinib relative to control; conditions: SU-DHL-4, 72 h, time 3 day, read-out: GI
SUD4 [3] = test: Growth inhibition of human SU-DHL-4 cells at 0.33 uM incubated for 3 days in presence of 0.17 uM acalabrutinib relative to control; conditions: SU-DHL-4, 72 h, time 3 day, read-out: GI
SUD4 [4] = test: Growth inhibition of human SU-DHL-4 cells at 0.33 uM incubated for 3 days in presence of 0.017 uM acalabrutinib relative to control; conditions: SU-DHL-4, 72 h, time 3 day, read-out: GI
SUD4 [5] = test: Growth inhibition of human SU-DHL-4 cells at 0.17 uM incubated for 3 days in presence of 0.33 uM acalabrutinib relative to control; conditions: SU-DHL-4, 72 h, time 3 day, read-out: GI
SUD4 [6] = test: Growth inhibition of human SU-DHL-4 cells at 0.33 uM incubated for 3 days in presence of 0.003 uM acalabrutinib relative to control; conditions: SU-DHL-4, 72 h, time 3 day, read-out: GI
SUD4 [7] = test: Growth inhibition of human SU-DHL-4 cells at 0.17 uM incubated for 3 days in presence of 0.17 uM acalabrutinib relative to control; conditions: SU-DHL-4, 72 h, time 3 day, read-out: GI
SUD4 [8] = test: Growth inhibition of human SU-DHL-4 cells at 0.17 uM incubated for 3 days in presence of 0.033 uM acalabrutinib relative to control; conditions: SU-DHL-4, 72 h, time 3 day, read-out: GI
SUD4 [9] = test: Growth inhibition of human SU-DHL-4 cells at 0.17 uM incubated for 3 days in presence of 0.017 uM acalabrutinib relative to control; conditions: SU-DHL-4, 72 h, time 3 day, read-out: GI
SUD4 [10] = test: Growth inhibition of human SU-DHL-4 cells at 0.17 uM incubated for 3 days in presence of 0.003 uM acalabrutinib relative to control; conditions: SU-DHL-4, 72 h, time 3 day, read-out: GI
OCI-Ly10 [11] = test: Growth inhibition of human OCILY10 cells at 0.17 uM incubated for 3 days in presence of 0.003 uM acalabrutinib relative to control; conditions: OCI-Ly10, 72 h, time 3 day, read-out: GI
OCI-Ly10 [12] = test: Growth inhibition of human OCILY10 cells at 0.17 uM incubated for 3 days in presence of 0.017 uM acalabrutinib relative to control; conditions: OCI-Ly10, 72 h, time 3 day, read-out: GI
OCI-Ly10 [13] = test: Growth inhibition of human OCILY10 cells at 0.17 uM incubated for 3 days in presence of 0.033 uM acalabrutinib relative to control; conditions: OCI-Ly10, 72 h, time 3 day, read-out: GI
OCI-Ly10 [14] = test: Growth inhibition of human OCILY10 cells at 0.17 uM incubated for 3 days in presence of 0.17 uM acalabrutinib relative to control; conditions: OCI-Ly10, 72 h, time 3 day, read-out: GI
OCI-Ly10 [15] = test: Growth inhibition of human OCILY10 cells at 0.17 uM incubated for 3 days in presence of 0.33 uM acalabrutinib relative to control; conditions: OCI-Ly10, 72 h, time 3 day, read-out: GI
OCI-Ly10 [16] = test: Growth inhibition of human OCILY10 cells at 0.33 uM incubated for 3 days in presence of 0.003 uM acalabrutinib relative to control; conditions: OCI-Ly10, 72 h, time 3 day, read-out: GI
OCI-Ly10 [17] = test: Growth inhibition of human OCILY10 cells at 0.33 uM incubated for 3 days in presence of 0.017 uM acalabrutinib relative to control; conditions: OCI-Ly10, 72 h, time 3 day, read-out: GI
OCI-Ly10 [18] = test: Growth inhibition of human OCILY10 cells at 0.33 uM incubated for 3 days in presence of 0.033 uM acalabrutinib relative to control; conditions: OCI-Ly10, 72 h, time 3 day, read-out: GI
OCI-Ly10 [19] = test: Growth inhibition of human OCILY10 cells at 0.33 uM incubated for 3 days in presence of 0.17 uM acalabrutinib relative to control; conditions: OCI-Ly10, 72 h, time 3 day, read-out: GI
OCI-Ly10 [20] = test: Growth inhibition of human OCILY10 cells at 0.33 uM incubated for 3 days in presence of 0.33 uM acalabrutinib relative to control; conditions: OCI-Ly10, 72 h, time 3 day, read-out: GI
OCI-Ly10 [21] = test: Growth inhibition of human OCILY10 cells at 1.7 uM incubated for 3 days in presence of 0.003 uM acalabrutinib relative to control; conditions: OCI-Ly10, 72 h, time 3 day, read-out: GI
OCI-Ly10 [22] = test: Growth inhibition of human OCILY10 cells at 1.7 uM incubated for 3 days in presence of 0.017 uM acalabrutinib relative to control; conditions: OCI-Ly10, 72 h, time 3 day, read-out: GI
OCI-Ly10 [23] = test: Growth inhibition of human OCILY10 cells at 1.7 uM incubated for 3 days in presence of 0.033 uM acalabrutinib relative to control; conditions: OCI-Ly10, 72 h, time 3 day, read-out: GI
OCI-Ly10 [24] = test: Growth inhibition of human OCILY10 cells at 1.7 uM incubated for 3 days in presence of 0.17 uM acalabrutinib relative to control; conditions: OCI-Ly10, 72 h, time 3 day, read-out: GI
OCI-Ly10 [25] = test: Growth inhibition of human OCILY10 cells at 1.7 uM incubated for 3 days in presence of 0.33 uM acalabrutinib relative to control; conditions: OCI-Ly10, 72 h, time 3 day, read-out: GI
OCI-Ly10 [26] = test: Growth inhibition of human OCILY10 cells at 3.3 uM incubated for 3 days in presence of 0.003 uM acalabrutinib relative to control; conditions: OCI-Ly10, 72 h, time 3 day, read-out: GI
OCI-Ly10 [27] = test: Growth inhibition of human OCILY10 cells at 3.3 uM incubated for 3 days in presence of 0.17 uM acalabrutinib relative to control; conditions: OCI-Ly10, 72 h, time 3 day, read-out: GI
OCI-Ly10 [28] = test: Growth inhibition of human OCILY10 cells at 3.3 uM incubated for 3 days in presence of 0.33 uM acalabrutinib relative to control; conditions: OCI-Ly10, 72 h, time 3 day, read-out: GI
OCI-Ly10 [29] = test: Growth inhibition of human OCILY10 cells at 10 uM incubated for 3 days in presence of 0.003 uM acalabrutinib relative to control; conditions: OCI-Ly10, 72 h, time 3 day, read-out: GI
OCI-Ly10 [30] = test: Growth inhibition of human OCILY10 cells at 10 uM incubated for 3 days in presence of 0.017 uM acalabrutinib relative to control; conditions: OCI-Ly10, 72 h, time 3 day, read-out: GI
OCI-Ly10 [31] = test: Growth inhibition of human OCILY10 cells at 10 uM incubated for 3 days in presence of 0.033 uM acalabrutinib relative to control; conditions: OCI-Ly10, 72 h, time 3 day, read-out: GI
OCI-Ly10 [32] = test: Growth inhibition of human OCILY10 cells at 10 uM incubated for 3 days in presence of 0.17 uM acalabrutinib relative to control; conditions: OCI-Ly10, 72 h, time 3 day, read-out: GI
SUD4 [33] = test: Growth inhibition of human SU-DHL-4 cells at 1.7 uM incubated for 3 days in presence of 0.17 uM acalabrutinib relative to control; conditions: SU-DHL-4, 72 h, time 3 day, read-out: GI
SUD4 [34] = test: Growth inhibition of human SU-DHL-4 cells at 1.7 uM incubated for 3 days in presence of 0.33 uM acalabrutinib relative to control; conditions: SU-DHL-4, 72 h, time 3 day, read-out: GI
SUD4 [35] = test: Growth inhibition of human SU-DHL-4 cells at 3.3 uM incubated for 3 days in presence of 0.003 uM acalabrutinib relative to control; conditions: SU-DHL-4, 72 h, time 3 day, read-out: GI
SUD4 [36] = test: Growth inhibition of human SU-DHL-4 cells at 3.3 uM incubated for 3 days in presence of 0.017 uM acalabrutinib relative to control; conditions: SU-DHL-4, 72 h, time 3 day, read-out: GI
SUD4 [37] = test: Growth inhibition of human SU-DHL-4 cells at 3.3 uM incubated for 3 days in presence of 0.17 uM acalabrutinib relative to control; conditions: SU-DHL-4, 72 h, time 3 day, read-out: GI
SUD4 [38] = test: Growth inhibition of human SU-DHL-4 cells at 3.3 uM incubated for 3 days in presence of 0.33 uM acalabrutinib relative to control; conditions: SU-DHL-4, 72 h, time 3 day, read-out: GI
SUD4 [39] = test: Growth inhibition of human SU-DHL-4 cells at 10 uM incubated for 3 days in presence of 0.017 uM acalabrutinib relative to control; conditions: SU-DHL-4, 72 h, time 3 day, read-out: GI
SUD4 [40] = test: Growth inhibition of human SU-DHL-4 cells at 10 uM incubated for 3 days in presence of 0.033 uM acalabrutinib relative to control; conditions: SU-DHL-4, 72 h, time 3 day, read-out: GI
SUD4 [41] = test: Growth inhibition of human SU-DHL-4 cells at 10 uM incubated for 3 days in presence of 0.33 uM acalabrutinib relative to control; conditions: SU-DHL-4, 72 h, time 3 day, read-out: GI

Compound: Cc1ncc(-c2nc3c(NC(C)C)nc(Nc4cnn(C5CC6(C5)CN(C)C6)c4)nc3cc2F)cn1
- inhibition of growth at 1.7 µM (SUD4 [1]): 3%
- inhibition of growth at 0.33 µM (SUD4 [2]): 6%
- inhibition of growth at 0.33 µM (SUD4 [3]): 4%
- inhibition of growth at 0.33 µM (SUD4 [4]): 3%
- inhibition of growth at 0.17 µM (SUD4 [5]): 6%
- inhibition of growth at 0.33 µM (SUD4 [6]): 3%
- inhibition of growth at 0.17 µM (SUD4 [7]): 3%
- inhibition of growth at 0.17 µM (SUD4 [8]): 2%
- inhibition of growth at 0.17 µM (SUD4 [9]): 3%
- inhibition of growth at 0.17 µM (SUD4 [10]): 3%
- inhibition of growth at 0.17 µM (OCI-Ly10 [11]): 29%
- inhibition of growth at 0.17 µM (OCI-Ly10 [12]): 97%
- inhibition of growth at 0.17 µM (OCI-Ly10 [13]): 137%
- inhibition of growth at 0.17 µM (OCI-Ly10 [14]): 172%
- inhibition of growth at 0.17 µM (OCI-Ly10 [15]): 173%
- inhibition of growth at 0.33 µM (OCI-Ly10 [16]): 51%
- inhibition of growth at 0.33 µM (OCI-Ly10 [17]): 158%
- inhibition of growth at 0.33 µM (OCI-Ly10 [18]): 177%
- inhibition of growth at 0.33 µM (OCI-Ly10 [19]): 185%
- inhibition of growth at 0.33 µM (OCI-Ly10 [20]): 183%
- inhibition of growth at 1.7 µM (OCI-Ly10 [21]): 170%
- inhibition of growth at 1.7 µM (OCI-Ly10 [22]): 196%
- inhibition of growth at 1.7 µM (OCI-Ly10 [23]): 196%
- inhibition of growth at 1.7 µM (OCI-Ly10 [24]): 197%
- inhibition of growth at 1.7 µM (OCI-Ly10 [25]): 195%
- inhibition of growth at 3.3 µM (OCI-Ly10 [26]): 189%
- inhibition of growth at 3.3 µM (OCI-Ly10 [27]): 196%
- inhibition of growth at 3.3 µM (OCI-Ly10 [28]): 195%
- inhibition of growth at 10 µM (OCI-Ly10 [29]): 196%
- inhibition of growth at 10 µM (OCI-Ly10 [30]): 197%
- inhibition of growth at 10 µM (OCI-Ly10 [31]): 198%
- inhibition of growth at 10 µM (OCI-Ly10 [32]): 199%
- inhibition of growth at 1.7 µM (SUD4 [33]): 3%
- inhibition of growth at 1.7 µM (SUD4 [34]): 6%
- inhibition of growth at 3.3 µM (SUD4 [35]): 4%
- inhibition of growth at 3.3 µM (SUD4 [36]): 4%
- inhibition of growth at 3.3 µM (SUD4 [37]): 4%
- inhibition of growth at 3.3 µM (SUD4 [38]): 7%
- inhibition of growth at 10 µM (SUD4 [39]): 7%
- inhibition of growth at 10 µM (SUD4 [40]): 6%
- inhibition of growth at 10 µM (SUD4 [41]): 10%
